Patent US5162361A, “Method of treating diseases associated with elevated levels of interleukin 1” (priority 1990, dated 1992)

How the values were obtained:
[1] = test system: IL-1α mRNA; assay: Northern blot analysis of IL-1α mRNA expression; assay type: cell-based, rat; details: 1 μM dexamethasone, LPS, 3 h, FIG. 2
Description: Specific transcription of IL-1α mRNA synthesis was assessed by incubating cells with and without 10 μM pentamidine or 1 μM of the corticosteroid, dexamethasone in the presence or absence of lipopolysaccharide (LPS). At the end of a 3 hour incubation period, the cells were lysed and the total cellular RNA was collected, blotted onto a nitrocellulose filter and probed with ^32 P-labeled IL-1α cDNA. […] In contrast, mRNA for IL-1α was not seen in dexamethasone treated cells.
For determination of IL-1 mRNA levels, cells (4×10^6) were cultured with or without pentamidine (10 μM) or dexamethasone (1 μM) in media with 10% FCS in the presence or absence of LPS (1 μg/ml) for 3 hours. Total cellular RNA was isolated by quanidinium-thiocyanate phenolchloroform extraction (P. Chomczynski et al., Anal. Bioch. 162, 156 (1987)). RNA (10 μg) was electrophoresed in 1.2% agarose gels as previously described (H. Leharch et al., Biochemistry 4743 (1977)). […] Hybridizing species were detected by autoradiography at -70° C., using Kodak XAR film with an intensifying screen. The total RNA levels per lane on the gel was assessed by monitoring 28S and 18S, and expression of α-tubulin mRNA. Accumulation of α-tubulin mRNA was determined by probing the same blot with ^32 P labeled 30 mer oligonucleotide (Du Pont).

[2] = test system: IL-1α; assay: Western blot analysis of cell associated IL-1α; assay type: cell-based, rat; details: 1 μM dexamethasone, LPS, 24 h, FIG. 3
Description: To determine the effect of pentamidine on cellular stores of IL-1, intracellular levels of IL-1 were quantitated by incubating cells with and without 10 μM pentamidine and LPS for 24 hours. At the end of this incubation period, the cells were washed, lysed and the total cellular protein was collected for Western blot analysis. […] This is in agreement with the generally accepted existence of a precursor form of IL-1 with a molecular weight in the range of 31-33 kD (J. Giri et al., J. Immunol. 134, 343 (1985)).
Cells (4×10^6 cells) were oultured with pentamidine (10μM) or dexamethasone (1μM) in media with 10% fetal calf serum (FCS) in the presence or absence of LPS (1 μg/ml) for 24 hours. The cells were washed twice in HBSS and then scraped in homogenizing buffer (HBSS containing 0.1 mM EGTA, 1 mM pmsf, 10 μg/ml leupeptin, 1 KIU/ml aprotinin, pH 7.4). The cell suspension was left on ice for 10 minutes at which time the swollen cells were disrupted by sonication. The nuclei and undisrupted cells were pelleted by centrifugation at 800 rpm for 10 minutes and were discarded. The supernatant was centrifugated at 39,000 rpm for 1 hour at 4° C. After centrifugation, the supernatants containing cytosolic components of the cell was carefully removed and was used as the cytosol fraction. […] Molecular weight references were determined by running one lane with pre-stained molecular weight standards.

[3] = test system: Ia antigen; assay: Ia antigen expression on alveolar macrophages (flow cytometry); assay type: cell-based, rat
Description: ^a Ia antigen expression - Alveolar macrophages were diluted to 1×10^6 cells/ml in RPMI (supplemented as above). Three mls. (3×10^6 cells) were added to sterile teflon vials and treated with pentamidine or dexamethasone for 4 hours at 37° C., 5% CO2, followed by the addition of rat γ IFN at 100 U/ml. Cells were incubated for 18 hours, pelleted, counted and adjusted to 1×10^7 cells/ml in ice cold standard buffer (HBSS, 0.1% Na azide, 1% BSA).
Aliquots of cells (50 μl in quadruplicate) from the various treatment groups were plated to a 96 well round bottom plate (Linbro) and incubated for 45 minutes on ice with 50 μl aliquots of one of the following: monoclonal anti-rat OXS (Sera-lab), monoclonal anti-mouse OX6 (Sera-lab), both at 0.5 μg/5×10^5 cells, or HBSS (control). Cells were washed 3× with standard buffer and incubated for 45 minutes on ice, in the dark, with 50 μl of phycoerythrin-labeled goat anti-mouse IGGI (Fisher Biotech) at 1 μg/5×10^5 cells. Cells were washed 3× with standard buffer, resuspended in 0.4 ml of standard buffer and analyzed via flow cytometry.

[4] = test system: Pulmonary alveolar macrophages; assay: Phagocytosis by pulmonary alveolar macrophages (Fluoresbrite beads, flow cytometry); assay type: cell-based, rat
Description: One ml aliquots were added to sterile teflon vials (Nalgene) along with pentamidine or dexamethasone (Sigma) as indicated, and incubated for 4 hours at 37° C., 5% CO2. Fluoresbrite carboxylate beads, 1.73 μm (Polysciences) were used to achieve a 100:1 bead to cell ratio and the suspension was incubated for 45 minutes at 37° C., 5% CO2 with gentle agitation. Cell suspensions were then layered over 3 mls. of RPMI/FCS+0.3% BSA, and cells pelleted at 150 xg for 10 minutes. Supernates were discarded and cells resuspended in 1 ml of RPMI/FCS for analysis via flow cytometry. The data presented above is the mean of the percentage of cells taking up one or more beads of triplicate cultures.

[5] = test system: IL-1; assay: IL-1 release from alveolar macrophages (thymocyte co-stimulation bioassay); assay type: cell-based, rat; details: for Effect on IL-1: LPS, 24 h, FIG. 7
Description: Pulmonary alveolar macrophages were collected by lavaging the lungs as previously described (D. B. Warheit et al., Am. Rev. Resp. Dis. 134, 128 (1986)). Once washed and resuspended, the macrophages were allowed to adhere to plastic plates in serum free RPMI 1640 containing 25 mM Hepes, 2 mM L-glutamine, 50 μg/ml gentamicin and streptomycin (media). Following adherence for 1 hour at 37° C. in 5% CO2, the plates were washed once with warm media to remove nonadherent cells, cells were resuspended in media with 10% FCS and treated with or without pentamidine at the indicated concentration and LPS (5 ng/ml) for 24 hours). IL-1 activity was assayed using a thymocyte co-stimulation assay (S. B. Mizel in Methods in Macrophage Biology, Editors, Herscowitz and Holden (1981)). Single cell thymocyte suspension from B6C3F1 mice (female, 5-9 weeks old) at a concentration of 2.0×10^7 /ml in media containing 10% FCS, and 2.5×10^-5 M 2-β mercaptoethanol were added in 50 μl aliquots to each well of flat bottom microtiter plates along with 50 μl of PHA at 2.5 μg/ml. Serial dilution of supernatants or cells were made in media with 10% FCS and added in 100 μl aliquots. IL-1 activity was measured by quantifying the uptake of 3Hthymidine during the last 6 hours of a 72 hour culture at 37° C. and 5% CO2. Cells were harvested onto glass fiber filters and filter associated radioactivity counted in a scintillation counter.
(§1) In vitro studies were performed by taking alveolar macrophages from normal healthy rat lungs and culturing them in the presence of an imidazoline with the inducer lipopolysaccharide for 24 hours. The standard bioassay for IL-1 was performed (see above).

[6] = test system: tumor necrosis factor; assay: Tumor necrosis factor secretion by rat macrophages; assay type: cell-based
Description: It has also been observed that pentamidine (10^-5 M) blocks the secretion of tumor necrosis factor in rat macrophages (42 units/ml - pentamidine vs. 82 units/ml - control), as well as tumor necrosis factor and IL-6 in human macrophages, where at a concentration of 10^-5 M pentamidine, tumor necrosis factor and IL-6 secretion are suppressed >50%. These additional cytokines are also very influential mediators in inflammatory diseases.
as §1

[7] = test system: IL-1; assay: Western blot analysis of IL-1 on cellular protein from imidazoline treated cells; assay type: cell-based, rat
From the text: In addition, Western blot analysis of IL-1 on cellular protein derived from imidazoline treated cells was recently performed. This method definitively identifies the presence or absence of the protein using electrophoretic techniques to separate by molecular weight IL-1 from other proteins followed by staining with specific antibody fog IL-1.

[8] = In vitro toxicity to the cell (LD50); assay type: cell-based; details: rat macrophages
[9] = test system: rat macrophages; assay: In vitro toxicity to the cell (LD50); assay type: cell-based; details: imidazoline, summary statement; compared with pentamidine

| SMILES | IL-1α mRNA expression [1] | Cell associated IL-1α (Western blot) [2] | Ia Antigen Expression (MFI) ([3]; Dexamethasone 10^-6 M (control 459), p < 0.025 vs. control) | Mean concentration of Ia molecules on Ia positive cells ([3]; result in words) | Phagocytic Index ([4]; Dexamethasone 10^-6 M (control 32), p < 0.025 vs. control) [%] | Phagocytic capacity of alveolar macrophages ([4]; result in words) | Effect on IL-1 ([5]; imidazoline 10^-6 M, 10^-5 M and 10^-4 M) | Effect on IL-1 ([5]; imidazoline 10^-8 M) | Block of IL-1 in rat macrophages ([5]; imidazoline, summary statement) | Tumor Necrosis Factor ([6]; 10^-5 M Imidazoline, LPS, 24 h (control 83 ± 11)) [units/ml] | Block of tumor necrosis factor in rat macrophages ([6]; imidazoline, summary statement) | Block of IL-1 secretion (Western blot) [7] | CC50 [8] [µM] | Toxicity to the cell [9] |
| --- | --- | --- | --- | --- | --- | --- | --- | --- | --- | --- | --- | --- | --- | --- |
| C[C@@H]1C[C@H]2[C@@H]3CCC4=CC(=O)C=C[C@]4(C)[C@@]3(F)[C@@H](O)C[C@]2(C)[C@@]1(O)C(=O)CO [Dexamethasone] | not seen | did not express the precursor from of IL-1α | 253 | clearly demonstrated its broad immunosuppressive action on these two macrophage functions | 25 | clearly demonstrated its broad immunosuppressive action on these two macrophage functions |  |  |  |  |  |  |  |  |
| c1cc(C2=NCCN2)ccc1OCCCCCOc1ccc(C2=NCCN2)cc1 [Imidazoline, 1,5-di(4-imidazolinophenoxy)pentane] |  |  |  |  |  |  | blocked IL-1 in a dose related manner | No effect | ability to block IL-1 | 46 ± 19 | ability to block IL-1 and tumor necrosis factor | blocks the secretion of IL-1 in a similar manner to pentamidine | > 100 | less toxic to the cell |
